Test results taken from patent US20240148821A1, “PHARMACEUTICAL USE OF CYCLIC PEPTIDE COMPOUND” (CHUGAI SEIYAKU KABUSHIKI KAISHA, priority 2021, published 2024).
Numbered stars: 1 amine (or outer) side, 2 acyl side, 3 side chain; on linkers, the order of the positions; unused ones are H or OH. Bridge positions count the residues as written; N and C are the ends. Square brackets hold non-standard residues; d marks the D form. Peptide text beside a SMILES is read from it. * marks the point of attachment. hPhe(3,5-F2-4-CF3) = N[C@@H](CCc1cc(F)c(C(F)(F)F)c(F)c1)C(=O)O; hPhe(3-Cl-4-CF3) = N[C@@H](CCc1ccc(C(F)(F)F)c(Cl)c1)C(=O)O; NMePhe(4-CF3) = CN[C@@H](Cc1ccc(C(F)(F)F)cc1)C(=O)O; hPhe(4-CF3) = N[C@@H](CCc1ccc(C(F)(F)F)cc1)C(=O)O; NMePhe(4-Cl) = CN[C@@H](Cc1ccc(Cl)cc1)C(=O)O; NMePhe(4-Me) = CN[C@@H](Cc1ccc(C)cc1)C(=O)O; NMedβ3hAla = C[C@H](CC(=O)[*:2])N(C)[*:1]; NMeGly(cPent) = CN[C@H](C(=O)O)C1CCCC1; NMeGly(cBu) = CN[C@H](C(=O)O)C1CCC1; NMeCha = CN[C@@H](CC1CCCCC1)C(=O)O; Hyp = O=C(O)[C@@H]1C[C@@H](O)CN1; NMeAhp(2) = CCCCC[C@H](NC)C(=O)O; NMeChg = CN[C@H](C(=O)O)C1CCCCC1; NMeF = CN[C@@H](Cc1ccccc1)C(=O)O; NMeI = CC[C@H](C)[C@H](NC)C(=O)O; NMeD = CN[C@@H](CC(=O)O)C(=O)O; NMeL = CN[C@@H](CC(C)C)C(=O)O; Oxazolidin(3-yl) = C1CN(*)CO1; NMeNva = CCC[C@H](NC)C(=O)O; NMeV = CN[C@H](C(=O)O)C(C)C; d(β3hA) = C[C@@H](N)CC(=O)O; NMeS = CN[C@@H](CO)C(=O)O; NPhGly = O=C(O)CNc1ccccc1; NMeA = CN[C@@H](C)C(=O)O; NMeAib = CNC(C)(C)C(=O)O; Piperidide = C1CCN(*)CC1; Pyrrolidide = C1CCN(*)C1; dNMeA = CN[C@H](C)C(=O)O; Ac5c = NC1(C(=O)O)CCCC1; Aze = O=C(O)[C@@H]1CCN1; NEtG = CCNCC(=O)O; Sar = CNCC(=O)O

What was measured:
[1] = molecular target: protein-protein interaction between Kras and SOS1 (biotin-tagged human Kras loaded with GDP, His-tagged human SOS1) (Homo sapiens (Human), UniProt P01116, G12D); assay: Protein-protein interaction inhibition between Kras and SOS1 (KrasG12D-SOS PPI) using AlphaScreen; type: biochemical; settings: AlphaScreen; biotin-tagged human Kras loaded with GDP, His-tagged human SOS1; read-out: KRAS G12D-SOS PPI IC50;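 also: kras produced in E. coli, Ni-coupled donor beads and streptavidin acceptor beads, excitation 680 nm with emission detected at 520–620 nm via singlet oxygen transfer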
[2] = test system: Human pancreatic cancer cell line AsPC-1 (G12D mutation Kras); assay: AsPC-1 cell growth inhibition (AsPC-1 CGI); type: cell-based; settings: read-out: AsPC-1 cell growth inhibition, 50% growth inhibitory concentration (IC50 value); 96 hours, CellTiter-Glo, values classified in ranges

| SMILES | IC50 [1] [nM] | IC50 [2] [nM] |
| --- | --- | --- |
| CC[C@H](C)[C@@H]1NC(=O)[C@H](CC(C)C)N(C)C(=O)C[C@@H](C(=O)N(C)C)N(C)C(=O)[C@H](C2CCCC2)N(C)C(=O)C2(CCCC2)NC(=O)[C@@H]2CCCN2C(=O)[C@H](CCc2ccc(C(F)(F)F)c(Cl)c2)NC(=O)CN(CC)C(=O)[C@H](Cc2ccc(C)cc2)N(C)C(=O)[C@@H]2CCN2C(=O)[C@H](C)N(C)C1=O [Compound 5] ([NMeL]I[NMeA][Aze][NMePhe(4-Me)][NEtG][hPhe(3-Cl-4-CF3)]P[Ac5c][NMeGly(cPent)][NMeD]-NMe2; lactam N-11) | 0.99 | ≤ 20 |
| CC[C@H](C)[C@@H]1NC(=O)[C@H](C)N(C)C(=O)C[C@@H](C(=O)N2CCCCC2)N(C)C(=O)[C@H](C(C)C)N(C)C(=O)C(C)(C)N(C)C(=O)[C@@H]2CCCN2C(=O)[C@H](CCc2ccc(C(F)(F)F)c(Cl)c2)NC(=O)CN(C)C(=O)[C@H](CC2CCCCC2)N(C)C(=O)[C@@H]2CCN2C(=O)[C@H](C)N(C)C1=O [Compound 1034] ([NMeA]I[NMeA][Aze][NMeCha][Sar][hPhe(3-Cl-4-CF3)]P[NMeAib][NMeV][NMeD]-Piperidide; lactam N-11) | 1.7 | > 500 |
| CCO[C@@H]1C[C@H]2C(=O)NC3(CCCC3)C(=O)N(C)[C@@H]([C@@H](C)CC)C(=O)N(C)[C@H](C)CC(=O)N(C)[C@@H](CC(C)C)C(=O)N[C@@H]([C@@H](C)CC)C(=O)N(C)[C@@H](C)C(=O)N3CC[C@H]3C(=O)N(C)[C@@H](Cc3ccc(C(F)(F)F)cc3)C(=O)N(C)CC(=O)N[C@@H](CCc3cc(F)c(C(F)(F)F)c(F)c3)C(=O)N2C1 [Compound 362] (cyclo([Ac5c][NMeI][NMedβ3hAla][NMeL]I[NMeA][Aze][NMePhe(4-CF3)][Sar][hPhe(3,5-F2-4-CF3)][Hyp](Et))) | 0.66 | ≤ 20 |
| CC[C@H](C)[C@@H]1NC(=O)[C@H](C(C)C)N(C)C(=O)C[C@@H](C(=O)N2CCCC2)NC(=O)[C@H](CC(C)C)N(C)C(=O)C2(CCCC2)NC(=O)[C@H](CC(C)C)N(C)C(=O)[C@H](CCc2ccc(C(F)(F)F)cc2)NC(=O)CN(C)C(=O)[C@H](Cc2ccc(Cl)cc2)N(C)C(=O)CN(C)C(=O)CN(C)C1=O [Compound 769] ([NMeV]I[Sar][Sar][NMePhe(4-Cl)][Sar][hPhe(4-CF3)][NMeL][Ac5c][NMeL]D-Pyrrolidide; lactam N-11) | 52 | > 500 |
| CC[C@H](C)[C@@H]1NC(=O)[C@H](CC(C)C)N(C)C(=O)C[C@@H](C(=O)N(C)C)N(C)C(=O)[C@H]([C@@H](C)CC)N(C)C(=O)[C@H](C(C)C)NC(=O)[C@@H]2CCCN2C(=O)[C@H](CCc2ccc(C(F)(F)F)c(Cl)c2)NC(=O)CN(C)C(=O)[C@H](Cc2ccc(C)cc2)N(C)C(=O)[C@@H]2CCN2C(=O)[C@H](C)N(C)C1=O [Compound 784] ([NMeL]I[NMeA][Aze][NMePhe(4-Me)][Sar][hPhe(3-Cl-4-CF3)]PV[NMeI][NMeD]-NMe2; lactam N-11) | 4 | > 500 |
| CC[C@H](C)[C@@H]1NC(=O)[C@H](C)N(C)C(=O)C[C@@H](C)NC(=O)[C@H](C2CCCC2)N(C)C(=O)C2(CCCC2)NC(=O)[C@@H]2CCCN2C(=O)[C@H](CCc2ccc(C(F)(F)F)c(Cl)c2)NC(=O)CN(C)C(=O)[C@H](Cc2ccccc2)N(C)C(=O)[C@@H]2CCCN2C(=O)CN(C)C1=O [Compound 1004] (cyclo([Ac5c][NMeGly(cPent)][d(β3hA)][NMeA]I[Sar]P[NMeF][Sar][hPhe(3-Cl-4-CF3)]P)) | 13 | > 500 |
| CC[C@H](C)[C@@H]1NC(=O)[C@H](CC(C)C)N(C)C(=O)C[C@@H](C)NC(=O)[C@H](C2CCCC2)N(C)C(=O)C2(CCCC2)NC(=O)[C@@H]2CCCN2C(=O)[C@H](CCc2ccc(C(F)(F)F)c(Cl)c2)NC(=O)CN(C)C(=O)[C@H](C)N(C)C(=O)[C@@H]2CCN2C(=O)[C@H](C)N(C)C1=O [Compound 1300] (cyclo([Ac5c][NMeGly(cPent)][d(β3hA)][NMeL]I[NMeA][Aze][NMeA][Sar][hPhe(3-Cl-4-CF3)]P)) | 94 | > 500 |
| CC[C@H](C)[C@@H]1NC(=O)[C@H](CC(C)C)N(C)C(=O)C[C@@H](C)NC(=O)[C@H](C2CCCCC2)N(C)C(=O)C2(CCCC2)NC(=O)[C@@H]2CCCN2C(=O)[C@H](CCc2ccc(C(F)(F)F)c(Cl)c2)NC(=O)CN(C)C(=O)[C@H](Cc2ccc(C)cc2)N(C)C(=O)[C@@H]2CCN2C(=O)[C@H](C)N(C)C1=O [Compound 1747] (cyclo([Ac5c][NMeChg][d(β3hA)][NMeL]I[NMeA][Aze][NMePhe(4-Me)][Sar][hPhe(3-Cl-4-CF3)]P)) | 16 | > 500 |
| CC[C@H](C)[C@@H]1NC(=O)[C@H](CC(C)C)N(C)C(=O)C[C@@H](C(=O)N(C)C)N(C)C(=O)[C@H](C2CCCC2)N(C)C(=O)[C@H](C)NC(=O)[C@@H]2CCCN2C(=O)[C@H](CCc2ccc(C(F)(F)F)c(Cl)c2)NC(=O)CN(C)C(=O)[C@H](CC2CCCCC2)N(C)C(=O)[C@@H]2CCN2C(=O)[C@H](C)N(C)C1=O [Compound 314] ([NMeL]I[NMeA][Aze][NMeCha][Sar][hPhe(3-Cl-4-CF3)]PA[NMeGly(cPent)][NMeD]-NMe2; lactam N-11) | 2.6 | > 500 |
| CC[C@H](C)[C@@H]1NC(=O)[C@H](CC(C)C)N(C)C(=O)C[C@@H](C(=O)N2CCCCC2)N(C)C(=O)[C@H](C(C)C)N(C)C(=O)C2(CCCC2)NC(=O)[C@@H]2CCCN2C(=O)[C@H](CCc2ccc(C(F)(F)F)c(Cl)c2)NC(=O)CN(C)C(=O)[C@H](COC)N(C)C(=O)[C@@H]2CCN2C(=O)[C@H](C)N(C)C1=O [Compound 487] ([NMeL]I[NMeA][Aze][NMeS](Me)[Sar][hPhe(3-Cl-4-CF3)]P[Ac5c][NMeV][NMeD]-Piperidide; lactam N-11) | 5.9 | > 500 |
| CC[C@H](C)[C@@H]1NC(=O)[C@H](C)N(C)C(=O)C[C@@H](C(=O)N2CCCCC2)N(C)C(=O)[C@H](C2CCC2)N(C)C(=O)C2(CCCC2)NC(=O)CN(c2ccccc2)C(=O)[C@H](CCc2ccc(C(F)(F)F)c(Cl)c2)NC(=O)CN(C)C(=O)[C@H](CC2CCCCC2)N(C)C(=O)CN(C)C(=O)CN(C)C1=O [Compound 2151] ([NMeA]I[Sar][Sar][NMeCha][Sar][hPhe(3-Cl-4-CF3)][NPhGly][Ac5c][NMeGly(cBu)][NMeD]-Piperidide; lactam N-11) | 2.5 | > 500 |
| CCC[C@H]1C(=O)N[C@@H]([C@@H](C)CC)C(=O)N(C)CC(=O)N(C)CC(=O)N(C)[C@@H](Cc2ccc(C)cc2)C(=O)N(C)CC(=O)N[C@@H](CCc2cc(F)c(C(F)(F)F)c(F)c2)C(=O)N2C[C@H](OCC)C[C@H]2C(=O)NC2(CCCC2)C(=O)N(C)[C@@H](C2CCCCC2)C(=O)N(C)[C@H](C(=O)N2CCCC2)CC(=O)N1C [Compound 1224] ([NMeNva]I[Sar][Sar][NMePhe(4-Me)][Sar][hPhe(3,5-F2-4-CF3)][Hyp](Et)[Ac5c][NMeChg][NMeD]-Pyrrolidide; lactam N-11) | 0.67 | ≤ 20 |
| CC[C@H](C)[C@@H]1NC(=O)[C@H](CC(C)C)N(C)C(=O)C[C@@H](C(=O)N2CCOC2)NC(=O)[C@H](C(C)C)N(C)C(=O)C2(CCCC2)NC(=O)[C@@H]2CCCN2C(=O)[C@H](CCc2ccc(C(F)(F)F)c(Cl)c2)NC(=O)CN(C)C(=O)[C@H](CC2CCCCC2)N(C)C(=O)[C@@H]2CCN2C(=O)[C@H](C)N(C)C1=O [Compound 1188] ([NMeL]I[NMeA][Aze][NMeCha][Sar][hPhe(3-Cl-4-CF3)]P[Ac5c][NMeV]D-{Oxazolidin(3-yl)}; lactam N-11) | 33 | > 500 |
| CCCCC[C@H]1C(=O)N[C@@H]([C@@H](C)CC)C(=O)N(C)[C@@H](C)C(=O)N2CC[C@H]2C(=O)N(C)[C@@H](Cc2ccc(C(F)(F)F)cc2)C(=O)N(C)CC(=O)N[C@@H](CCc2ccc(C(F)(F)F)c(Cl)c2)C(=O)N2CCC[C@H]2C(=O)NC2(CCCC2)C(=O)N(C)[C@@H]([C@@H](C)CC)C(=O)N(C)[C@H](C(=O)N2CCCC2)CC(=O)N1C [Compound 509] ([NMeAhp(2)]I[NMeA][Aze][NMePhe(4-CF3)][Sar][hPhe(3-Cl-4-CF3)]P[Ac5c][NMeI][NMeD]-Pyrrolidide; lactam N-11) | 1.3 | ≤ 20 |
| CC[C@H](C)[C@@H]1NC(=O)[C@H](CC(C)C)NC(=O)C[C@@H](C)NC(=O)[C@H](C2CCCC2)N(C)C(=O)C2(CCCC2)NC(=O)[C@@H]2CCCN2C(=O)[C@H](CCc2ccc(C(F)(F)F)c(Cl)c2)NC(=O)CN(C)C(=O)[C@H](Cc2ccc(C)cc2)N(C)C(=O)[C@@H]2CCN2C(=O)[C@H](C)N(C)C1=O [Compound 648] (cyclo([Ac5c][NMeGly(cPent)][d(β3hA)]LI[NMeA][Aze][NMePhe(4-Me)][Sar][hPhe(3-Cl-4-CF3)]P)) | 3.2 | > 500 |
| CC[C@H](C)[C@@H]1NC(=O)[C@H](C)N(C)C(=O)C[C@@H](C)NC(=O)[C@H](C2CCCC2)N(C)C(=O)C2(CCCC2)NC(=O)[C@@H]2CCCN2C(=O)[C@H](CCc2ccc(C(F)(F)F)c(Cl)c2)NC(=O)[C@@H](C)N(C)C(=O)[C@H](Cc2ccc(C)cc2)N(C)C(=O)[C@@H]2CCN2C(=O)CN(C)C1=O [Compound 1461] (cyclo([Ac5c][NMeGly(cPent)][d(β3hA)][NMeA]I[Sar][Aze][NMePhe(4-Me)][dNMeA][hPhe(3-Cl-4-CF3)]P)) | 37 | > 500 |
